This is an account of results in patent US20160237160A1, “ANTI-TWEAKR ANTIBODIES AND USES THEREOF” (BAYER PHARMA AKTIENGESELLSCHAFT, priority 2013, published 2016).

What all share (assay): Xenograft anti-tumor efficacy
What all share (format): in vivo, mice

Experiment [1] deals with CXF1103 patient-derived colorectal cancer model. As to conditions: tumor weight, TPP-2090 10 mg/kg twice weekly for 4 weeks. The procedure:
(§1) After tumor growth to a size of approximately 40 mm^2 mice were randomized into control and treatment groups with a respective group size of n=8-10. Mice were treated with various doses of anti-TWEAKR antibodies diluted in PBS by intravenous injection (i.v.) into the tail vein with a twice per week schedule (q4dx3: applications twice per week, three applications in total; q4dx8: applications twice per week, eight applications in total). Combination therapy partners such as Regorafenib (10 mg/kg daily, per os) and the PI3K-inhibitor 1 (10 mg/kg, BID, 2d on, 5d off (applications twice daily on two consecutive days, followed by five days without treatment), i.v.) were diluted in their respective formulations whereas the standard of care therapies Irinotecan (5 mg/kg, 4d on, 3d off (applications once daily on four consecutive days followed by three days without treatment) i.v.) and Paclitaxel (16 mg/kg, q7dx4 (applications once per week, four applications in total), i.v.) were diluted in 0.9% NaCl. Animals injected with PBS served as the control (vehicle) group. The applied volume of the compounds was 5 ml/kg body weight per mouse.
(§2) Tumor growth was monitored 2-3 times per week by caliper measurement (length×width in mm) as well as body weight (in g). At the end of study tumors were dissected, weighted and used for the calculation of tumor-to-control (T/C) ratios (mean tumor weight of treated animals divided by mean tumor weight of control/vehicle animals). […] 2×10^6 tumor cells in 100% Matrigel were s.c. inoculated in female nude mice. After 7d established tumors with a size of about 40 mm^2 were treated with 0.3 mg/kg, 1 mg/kg and 3 mg/kg of antibodies (i.v., q4dx3: applications twice per week, three applications in total).
(§3) Animal studies were conducted as described in example 8 for further human colorectal cancer tumor cell lines Colo205 and LoVo and for further human colorectal cancer patient-derived models Co7553, Co5896, Co5676, Co5841, CXF 1103 and CXF 533. […] The formulation of regorafenib is described in example 8.

Experiment [2] concerns Co5841 patient-derived colorectal cancer model. As to conditions: tumor weight, TPP-2090 10 mg/kg twice weekly for 4 weeks. The procedure:
as §1, §2, §3

Experiment [3] has as its system CXF533 patient-derived colorectal cancer model. Particulars: tumor weight, TPP-2090 10 mg/kg twice weekly for 4 weeks. The procedure: as §1, §2, §3
In experiment [4] the test system is Co5676 patient-derived colorectal cancer model. Particulars: tumor area, TPP-2090 10 mg/kg twice weekly for 4 weeks. The procedure:
as §1, §2, §3

Experiment [5] concerns Co7553 patient-derived colorectal cancer model. Particulars: tumor weight, TPP-2090 10 mg/kg twice weekly for 4 weeks.
Experiment [6] relates to Colo205 xenograft (colorectal cancer). Particulars: tumor weight, TPP-2090 10 mg/kg twice weekly for 4 weeks. On the procedure: as §1, §2, §3
The subject of experiment [7] is LoVo xenograft (colorectal cancer). Particulars: tumor weight, TPP-2090 10 mg/kg twice weekly for 4 weeks. On the procedure: as §1, §2, §3

As for `O=c1[nH]cc(F)c(=O)[nH]1` [5-FU, 5-fluorouracil], the “Final T/C” value in experiment [1] was 0.97; in experiment [2], 0.48; in experiment [3], 0.28; in experiment [4] it was 0.45.

Take `CCc1c2c(nc3ccc(OC(=O)N4CCC(N5CCCCC5)CC4)cc13)-c1cc3c(c(=O)n1C2)COC(=O)[C@]3(O)CC` [Irinotecan]: the “Final T/C” value is reported as 0.11 in experiment [5]; 0.47 in experiment [6]; 0.66 in experiment [1]; 0.17 in experiment [2]; 0.37 in experiment [4]; 0.52 in experiment [7].

As to `O=C1[O][Pt]2([NH][C@@H]3CCCC[C@H]3[NH]2)[O]C1=O` [Oxaliplatin, oxaliplatin], the “Final T/C” value in experiment [5] is 0.78; in experiment [6], 0.89; in experiment [1], 1.29; in experiment [2], 0.81; in experiment [3] it was 1.08; in experiment [7] it was 0.76.
